Laboratory results reported in paper PMC5945843, “Direct neurotransmitter activation of voltage-gated potassium channels” (Nature Communications, 2018).
Where “and” joins values, the source holds several entries; their conditions need not be identical. Equal entries are not always repeated. Where two headings read alike, the source gives them in different places.

Key:
[1] = target: KCNQ4 (Homo sapiens, UniProt P56696); experiment: TEVC in Xenopus oocytes; assay type: cell-based; settings: for Non-normalized tail current V0.5: Ctrl 8.6 ± 4.3; for Normalized tail current V0.5: Ctrl -8.7 ± 0.8
Excerpt: (§4) cRNA transcripts encoding human KCNQ1, KCNQ2, KCNQ3, KCNQ4, KCNQ5, KCNA1, or KCNE1 were generated by in vitro transcription using the T7 polymerase mMessage mMachine kit (Thermo Fisher Scientific), after vector linearization, from complementary DNA (cDNA) sub-cloned into plasmids incorporating Xenopus laevis β-globin 5′ and 3′ untranslated regions flanking the coding region to enhance translation and cRNA stability. cRNA was quantified by spectrophotometry. […] Defolliculated stage V and VI Xenopus laevis oocytes (Ecocyte Bioscience, Austin, TX) were injected with Kv channel α subunit cRNAs (5–10 ng).
(§5) Oocytes were placed in a small-volume oocyte bath (Warner) and viewed with a dissection microscope. Chemicals were sourced from Sigma. Bath solution was (in mM): 96 NaCl, 4 KCl, 1 MgCl2, 1 CaCl2, 10 HEPES (pH 7.6). […] Valeric acid was stored as a 5 mM stock in Ringer’s solution at 4 °C and diluted to working concentrations each experimental day. β-hydroxybutyric acid was stored at 4 °C as a 480 mM stock in 100% ethanol and diluted to working concentrations each experimental day. All compounds were introduced to the recording bath via gravity perfusion at a constant flow of 1 ml per min for 3 min prior to recording. Pipettes were of 1–2 MΩ resistance when filled with 3 M KCl. Currents were recorded in response to pulses between −80 mV and +40 mV at 20 mV intervals, or a single pulse to +40 mV, from a holding potential of −80 mV, to yield current-voltage relationships, current magnitude, and for quantifying activation rate. Deactivation was recorded at −80 mV after a single activating pulse to +40 mV, from a holding potential of −80 mV. […] TEVC data analysis was performed with Clampfit (Molecular Devices) and Graphpad Prism software (GraphPad, San Diego, CA, USA); values are stated as mean ± SEM. Normalized tail currents were plotted versus prepulse voltage and fitted with a single Boltzmann function:1 g=(A1-A2)/1+expV1/2-V∕VS+A2, where g is the normalized tail conductance, A1 is the initial value at −∞, A2 is the final value at +∞, V1/2 is the half-maximal voltage of activation, and VS the slope factor. Activation and deactivation kinetics were fitted with single exponential functions.

[2] = target: KCNQ5 (Homo sapiens, UniProt Q9NR82); experiment: TEVC in Xenopus oocytes; assay type: cell-based; settings: for Slope: Ctrl 9.6 ± 1.9; for Normalized tail current V0.5: Ctrl -41.7 ± 1.5; for Non-normalized tail current V0.5: Ctrl -[…]
Excerpt: as §4, §5

[3] = target: KCNA1 (Kv1.1) (Homo sapiens, UniProt Q09470); experiment: TEVC in Xenopus oocytes; assay type: cell-based; settings: for Slope: Ctrl 6.2 ± 0.4; for Normalized tail current V0.5: Ctrl -29.8 ± 0.69
KCNA1 (Kv1.1), sequence (Q09470 whole entry): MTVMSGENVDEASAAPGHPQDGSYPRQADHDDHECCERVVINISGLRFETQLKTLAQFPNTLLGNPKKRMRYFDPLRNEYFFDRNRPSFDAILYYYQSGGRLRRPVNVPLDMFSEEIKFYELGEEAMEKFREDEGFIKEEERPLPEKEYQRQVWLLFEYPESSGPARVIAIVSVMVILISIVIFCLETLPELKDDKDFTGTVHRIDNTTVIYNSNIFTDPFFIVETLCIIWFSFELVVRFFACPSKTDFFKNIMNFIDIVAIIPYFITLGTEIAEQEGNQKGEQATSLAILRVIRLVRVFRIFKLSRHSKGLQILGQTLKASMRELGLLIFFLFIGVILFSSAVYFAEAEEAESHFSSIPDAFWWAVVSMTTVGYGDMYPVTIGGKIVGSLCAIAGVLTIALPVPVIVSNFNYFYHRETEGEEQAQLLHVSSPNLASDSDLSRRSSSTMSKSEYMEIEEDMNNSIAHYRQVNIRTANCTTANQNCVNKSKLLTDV
Excerpt: Chemicals were sourced from Sigma.

[4] = target: KCNQ1-KCNE1 (Homo sapiens, UniProt P51787); experiment: TEVC and resting membrane potential in Xenopus oocytes; assay type: cell-based
Excerpt: as §4, §5

[5] = system: water-injected Xenopus laevis oocytes; experiment: TEVC of water-injected oocytes (endogenous currents, EM); assay type: cell-based
Excerpt: Chemicals were sourced from Sigma. […] […].

[6] = target: T1, KCNQ2/3 channels expressed in CHO cells (Mus musculus, UniProt Q8K3F6+Q9Z351); experiment: Whole-cell patch clamp of transfected CHO cells; assay type: cell-based; settings: 100 µM GABA
T1 construct: expressed in transfected cells; host or cells: CHO cells (ATCC), transient transfection with TransIT-LT1
Experimental: (§1) CHO cells (ATCC) were seeded on poly-L-lysine-treated glass coverslips in 24-well plates and transfected the next day using 0.5 µg each of mouse KCNQ2 and KCNQ3 cDNA in a CMV vector per well in normal media (DMEM with 10% FBS and 1% penicillin/streptomycin). The transfection reagent used was TransIT-LT1 (Mirus Bio LLC, Madison, WI, USA) and cells were patched 48–72 h post transfection. […] Media was replenished every 3 days and cultures were split once a week. […] Cell culture plastic ware and reagents were purchased from VWR and Fisher Scientific unless otherwise stated.
(§2) For both CHO cells and PC12 cells, currents were recorded in whole-cell mode at room temperature (22–25 °C) with 3–6 MΩ borosilicate glass electrodes backfilled with solution containing (in mM): 90 K acetate, 20 KCl, 40 HEPES, 3 MgCl2, 1 CaCl2, 3 EGTA-KOH, 2 MgATP; pH 7.2.
(§3) The pClamp8 (Molecular Devices) software package was used for data acquisition and Clampfit was used for analysis, along with Graphpad Prism 7.0 (Graphpad).

[7] = system: native M-current in PC12 cells; experiment: Whole-cell patch clamp of NGF-differentiated PC12 cells; assay type: cell-based, rat; settings: 100 µM GABA + 100 µM picrotoxin + 10 µM CGP55845
Experimental: as §1, §2, §3

[8] = system: native M-current in mouse DRG neurons; experiment: Perforated patch-clamp of dorsal root ganglion neurons; assay type: cell-based; settings: 100 µM GABA
Experimental: Adult male mice were purchased from Jackson Labs and then housed and used according to a protocol approved by the Institutional Animal Care and Use Committee of University of California, Irvine, and consistent with recommendations in the NIH Guide for the Care and Use of Laboratory Animals (8th edition, 2011). […]. DRG neurons were then cultured on poly-L-lysine and laminin-coated plastic coverslips in RPMI 1640 with 10% horse serum and 1% penicillin/streptomycin at 37 °C for 1–4 days before electrophysiological recordings were performed using perforated patch clamp. Amphotericin B (VWR, Radnor, PA) was dissolved in DMSO at 5 mg/ml (stock solution), then diluted to 150–200 µg/ml in intracellular solution and sonicated with a probe sonicator on ice for 5 s, kept at room temperature in the dark, and replaced every hour with a fresh solution from the stock. The working amphotericin solution was backfilled into borosilicate glass electrodes (3–5 MΩ) previously tip-filled to ~0.5 mm with intracellular solution lacking amphotericin B, immediately prior to sealing onto individual neurons. After whole-cell configuration was achieved and capacitance stabilized, whole-cell recordings were performed essentially as described in the prior paragraph, with the following differences: neurons were held at −20 mV to inactivate other channels before the test pulses; offline leak subtraction was performed.

[9] = target: KCNQ3* (expression-optimized KCNQ3-A315T mutant) (Homo sapiens, UniProt O43525, A315T); settings: for Slope: Ctrl 4.5 ± 0.9; for Normalized tail current V0.5: Ctrl -51.4 ± 1.9; for Non-normalized tail current V0.5: Ctrl -47.5 ± 4.4
Excerpt: as §4, §5

[10] = target: KCNQ1 (Homo sapiens, UniProt P51787); experiment: Two-electrode voltage clamp (TEVC) in Xenopus oocytes
Excerpt: as §4
Oocytes were placed in a small-volume oocyte bath (Warner) and viewed with a dissection microscope. Chemicals were sourced from Sigma. Bath solution was (in mM): 96 NaCl, 4 KCl, 1 MgCl2, 1 CaCl2, 10 HEPES (pH 7.6). […] Valeric acid was stored as a 5 mM stock in Ringer’s solution at 4 °C and diluted to working concentrations each experimental day. β-hydroxybutyric acid was stored at 4 °C as a 480 mM stock in 100% ethanol and diluted to working concentrations each experimental day. All compounds were introduced to the recording bath via gravity perfusion at a constant flow of 1 ml per min for 3 min prior to recording. Pipettes were of 1–2 MΩ resistance when filled with 3 M KCl. Currents were recorded in response to pulses between −80 mV and +40 mV at 20 mV intervals, or a single pulse to +40 mV, from a holding potential of −80 mV, to yield current-voltage relationships, current magnitude, and for quantifying activation rate. Deactivation was recorded at −80 mV after a single activating pulse to +40 mV, from a holding potential of −80 mV. For wortmannin studies, oocytes were incubated in 30 µM wortmannin for 3 h at 16 °C prior to recording. TEVC data analysis was performed with Clampfit (Molecular Devices) and Graphpad Prism software (GraphPad, San Diego, CA, USA); values are stated as mean ± SEM. […]

[11] = target: homomeric wild-type human KCNQ3 (Homo sapiens, UniProt O43525); experiment: 3H-GABA radioligand binding (single concentration, cold competition, saturation) in Xenopus oocytes; settings: cold (unlabeled) GABA 1 mM
homomeric wild-type human KCNQ3, sequence (O43525 whole entry): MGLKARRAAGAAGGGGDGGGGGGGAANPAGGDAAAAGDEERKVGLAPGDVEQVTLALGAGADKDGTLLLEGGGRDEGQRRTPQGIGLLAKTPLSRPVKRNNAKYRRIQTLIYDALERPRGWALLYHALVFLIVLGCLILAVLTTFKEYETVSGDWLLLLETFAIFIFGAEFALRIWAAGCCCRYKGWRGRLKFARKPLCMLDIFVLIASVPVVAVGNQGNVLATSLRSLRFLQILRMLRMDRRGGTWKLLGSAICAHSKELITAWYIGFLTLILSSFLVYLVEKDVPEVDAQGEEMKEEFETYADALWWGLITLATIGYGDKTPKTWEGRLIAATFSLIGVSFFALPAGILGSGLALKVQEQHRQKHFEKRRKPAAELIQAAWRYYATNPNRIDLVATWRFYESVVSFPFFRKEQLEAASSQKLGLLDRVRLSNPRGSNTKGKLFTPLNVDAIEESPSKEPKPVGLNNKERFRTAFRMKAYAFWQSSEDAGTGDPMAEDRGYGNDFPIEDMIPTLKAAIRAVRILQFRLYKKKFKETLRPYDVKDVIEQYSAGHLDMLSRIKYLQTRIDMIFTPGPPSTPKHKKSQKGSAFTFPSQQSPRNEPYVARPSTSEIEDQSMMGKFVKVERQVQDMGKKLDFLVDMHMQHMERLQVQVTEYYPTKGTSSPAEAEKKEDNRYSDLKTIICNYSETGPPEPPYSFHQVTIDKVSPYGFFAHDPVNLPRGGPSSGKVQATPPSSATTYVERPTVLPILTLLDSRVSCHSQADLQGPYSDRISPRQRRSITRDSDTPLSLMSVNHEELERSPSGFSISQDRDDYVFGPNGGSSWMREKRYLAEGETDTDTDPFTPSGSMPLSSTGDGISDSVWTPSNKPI
Experimental: Defolliculated stage V and VI Xenopus laevis oocytes (Ecocyte Bioscience, Austin, TX) were injected with Kv channel α subunit cRNAs (5–10 ng).
Oocytes were then washed four times in 16 °C ND96, then transferred to individual wells in a 96-well plate and lysed in 0.2% SDS in ND96. Each oocyte lysate was transferred to a scintillation vial containing 5 ml cytoscint scintillation cocktail fluid (MP Biomedicals, Santa Ana, CA). Vials were capped, shaken, and then allowed to sit at room temperature for at least 30 min before scintillation counting in a Beckmann Coulter LS6500 liquid scintillation counter. […] Oocytes were next incubated in 1 ml per group homogenization buffer (in mM, 150 NaCl, 2 CaCl2, 20 Tris, 2% Nonidet P-40) with 2% protease inhibitor cocktail (Pierce) and then lysed with a 20 ml pipette tip, vortexed, centrifuged at 4000 r.p.m. (10 min, 4 °C). The supernatant was mixed in Eppendorf tubes end-over-end overnight at 4 °C with high-capacity streptavidin agarose beads (Thermo Fisher, Huntington Beach, CA) (20 µl per group).
For the binding competition assay, the control group was treated as before. […] Each oocyte lysate was transferred to a scintillation vial containing 5 ml cytoscint scintillation cocktail fluid (MP Biomedicals). […] Bmax and Kd values were calculated using automated nonlinear regression analysis in GraphPad prism.

[12] = especially at subthreshold potentials

NCCCC(=O)O [GABA, γ-aminobutyric acid]
GABA sensitivity of channel activity [1]: relatively GABA-insensitive
Non-normalized tail current V0.5 ([1]; 0.1 µM GABA): -8.8 ± 4.3 mV
Normalized tail current V0.5 ([1]; 0.1 µM GABA): -9.6 ± 0.7 mV
Non-normalized tail current V0.5 ([1]; 1 µM GABA): -9.0 ± 4.3 mV
Normalized tail current V0.5 ([1]; 1 µM GABA): -9.6 ± 0.8 mV
Non-normalized tail current V0.5 ([1]; 10 µM GABA): -9.3 ± 3.7 mV
Normalized tail current V0.5 ([1]; 10 µM GABA): -9.8 ± 0.8 mV
Non-normalized tail current V0.5 ([1]; 100 µM GABA): -9.0 ± 3.8 mV
Normalized tail current V0.5 ([1]; 100 µM GABA): -10.3 ± 0.8 mV
Non-normalized tail current V0.5 ([1]; 1 mM GABA): -8.4 ± 3.4 mV
Normalized tail current V0.5 ([1]; 1 mM GABA): -8.8 ± 0.8 mV
Slope ([2]; 0.001 µM GABA): 9.4 ± 4.3 mV
Normalized tail current V0.5 ([2]; 0.001 µM GABA): -41.9 ± 2.9 mV
Non-normalized tail current V0.5 ([2]; 0.001 µM GABA): -41.8 ± 2.8 mV
Slope ([2]; 0.01 µM GABA): 7.6 ± 2.4 mV
Normalized tail current V0.5 ([2]; 0.01 µM GABA): -50.1 ± 2.9 mV
Non-normalized tail current V0.5 ([2]; 0.01 µM GABA): -49.5 ± 2.5 mV
Slope ([2]; 0.1 µM GABA): 7.4 ± 1.2 mV
Normalized tail current V0.5 ([2]; 0.1 µM GABA): -53.9 ± 1.7 mV
Non-normalized tail current V0.5 ([2]; 0.1 µM GABA): -51.3 ± 2.1 mV
Slope ([2]; 1 µM GABA): 7.6 ± 1.2 mV
Normalized tail current V0.5 ([2]; 1 µM GABA): -54.2 ± 1.6 mV
Non-normalized tail current V0.5 ([2]; 1 µM GABA): -51.2 ± 2.6 mV
Slope ([2]; 10 µM GABA): 8.4 ± 1.4 mV
Normalized tail current V0.5 ([2]; 10 µM GABA): -57.0 ± 1.8 mV
Non-normalized tail current V0.5 ([2]; 10 µM GABA): -54.5 ± 2.3 mV
Slope ([2]; 100 µM GABA): 8.5 ± 1.5 mV
Normalized tail current V0.5 ([2]; 100 µM GABA): -57.4 ± 1.8 mV
Non-normalized tail current V0.5 ([2]; 100 µM GABA): -54.5 ± 2.7 mV
Slope ([2]; 1 mM GABA): 8.8 ± 1.5 mV
Normalized tail current V0.5 ([2]; 1 mM GABA): -58.3 ± 1.8 mV
Non-normalized tail current V0.5 ([2]; 1 mM GABA): -56.4 ± 2.4 mV
higher GABA sensitivity of KCNQ5 than KCNQ3* ([2]; EC50 ratio at −60 mV): 17 fold
EC50 ([2]; at −60 mV): 60 ± 10 nM
effect on channel [2, 12]: activates
Slope ([3]; 0.1 µM GABA): 6.4 ± 0.5 mV
Normalized tail current V0.5 ([3]; 0.1 µM GABA): -29.3 ± 0.88 mV
Slope ([3]; 1 µM GABA): 6.1 ± 0.5 mV
Normalized tail current V0.5 ([3]; 1 µM GABA): -28.4 ± 0.89 mV
Slope ([3]; 10 µM GABA): 6.1 ± 0.5 mV
Normalized tail current V0.5 ([3]; 10 µM GABA): -27.6 ± 0.82 mV
Slope ([3]; 100 µM GABA): 6.2 ± 0.4 mV
Normalized tail current V0.5 ([3]; 100 µM GABA): -27.2 ± 0.67 mV
Slope ([3]; 1 mM GABA): 6.4 ± 0.6 mV
Normalized tail current V0.5 ([3]; 1 mM GABA): -27.3 ± 0.93 mV
effect on peak current or normalized tail current ([3]; GABA 1 mM): no effect
Normalized tail current V0.5 ([4]; 100 µM GABA, Ctrl 6.1 ± 0.8): 3.3 ± 1.2 mV
Non-normalized tail current V0.5 ([4]; 100 µM GABA, Ctrl 6.3 ± 2.6): 3.1 ± 2.7 mV
Slope ([4]; 100 µM GABA, Ctrl 14 ± 0.7): 13.2 ± 0.9 mV
effect on KCNQ1-KCNE1 activity ([4]; GABA 100 µM): no effect
effect on resting membrane potential (EM) ([4]; GABA 100 µM, unclamped oocytes): does not alter
effect on endogenous currents or resting membrane potential ([5]; GABA 100 µM): no effect
effect on water-injected oocytes ([5]; GABA 1 mM): neither did increasing GABA to 1 mM produce any noticeable effects
Slope ([6]; Ctrl 14.3 ± 1.6): 16.2 ± 3.0 mV
Normalized tail current V0.5 ([6]; Ctrl -2.9 ± 2.7): -17.5 ± 3.7 mV and −17.5 mV
Slope ([7]; blockers alone 17.4 ± 3.0): 16.0 ± 3.2 mV
Normalized tail current V0.5 ([7]; blockers alone -7.1 ± 7.6): -20.6 ± 4.9 mV
decrease of deactivating current at −60 mV [8]: ~ 25%
mean GABA-dependent change in current ([8]; at −20 mV): no mean change
mean GABA-dependent current increase ([8]; at −60 mV, picrotoxin + CGP55845 present): threefold
efficacy of channel activation, KCNQ3* compared to KCNQ5 [9]: more than threefold greater
Slope ([9]; 0.1 µM GABA): 4.6 ± 0.9 mV
Normalized tail current V0.5 ([9]; 0.1 µM GABA): -54.2 ± 1.5 mV
Slope ([9]; 1 µM GABA): 4.3 ± 0.8 mV
Slope ([9]; 10 µM GABA): 4.3 ± 3.5 mV
Non-normalized tail current V0.5 ([9]; 10 µM GABA): -58.4 ± 2.7 mV
Normalized tail current V0.5 ([9]; 10 µM GABA): -58.9 ± 1.0 mV
Slope ([9]; 100 µM GABA): 4.8 ± 3.0 mV
Non-normalized tail current V0.5 ([9]; 100 µM GABA): -59.4 ± 2.8 mV
Normalized tail current V0.5 ([9]; 100 µM GABA): -59.8 ± 0.9 mV
Slope ([9]; 1 mM GABA): 4.7 ± 3.3 mV
Non-normalized tail current V0.5 ([9]; 1 mM GABA): -59.3 ± 2.5 mV
Normalized tail current V0.5 ([9]; 1 mM GABA): -59.6 ± 0.9 mV
effect on channel [9, 12]: activates
GABA sensitivity of channel activity [10]: relatively GABA-insensitive
Non-normalized tail current V0.5 ([10]; 100 µM GABA, Ctrl -30.1 ± 2.2): -32.6 ± 1.9 mV
Normalized tail current V0.5 ([10]; 100 µM GABA, Ctrl -34.1 ± 0.9): -34.2 ± 0.8 mV
competition of 3H-GABA binding [11]: outcompeted
